Results published in patent US20160120915A1, “METHODS FOR MANIPULATING IMMUNE RESPONSES BY ALTERING MICROBIOTA” (NEW YORK UNIVERSITY, priority 2013, published 2016).
Where a name gives a salt, the structure may show the parent alone.

What was measured:
ileum = experiment: TRANSTAT: ileal expression by qPCR in 18-week microbiota donor mice; assay type: in vivo, C57BL6J mice; conditions: 18-week STAT-donor mice vs control donors
Experimental: Total RNA was extracted from mouse tissues using the RNeasy Mini Kit (Qiagen), according to the manufacturer's instructions. Total RNA was reverse transcribed to cDNA using the Verso™ cDNA Synthesis Kit (Thermo Scientific). To generate standards for expression analysis of each target gene, the cDNA region of interest was PCR-amplified and the PCR product was cloned into pGEM-T easy (Promega). qPCR was performed with LightCycler 480 SYBR Green I Master mix (Roche) and run in a LightCycler 480 system (Roche). Target mRNA was normalized to GAPDH mRNA as an internal control in each sample.
C57BL/6J (Jackson Labs, Bar Harbor, Me.) mice either received no antibiotics (control) or continuous STAT penicillin. Mice were weaned at 4 weeks onto normal chow (13.2% fat, 5053 PicoLab Rodent Diet 20, LabDiet, Brentwood, Mo.), then changed to a high fat diet (45% kcal from fat, D12451, Research Diets, New Brunswick, N.J.) at 6 weeks of life. At 18 weeks of age, from each group (Control, n=9; STAT, n=8), the three animals with weight at or closest to the median were selected as cecal content donors. Donor mice were humanely euthanized, and the proximal ⅓ of the cecum was aseptically removed and after a series of processing steps, either the pooled Control or STAT microbiota suspensions were placed in the stomachs of the germ-free recipients (Control, n=7 recipients; STAT, n=8) by oral gavage. Recipients were chosen randomly, and the inoculum alternated between control and STAT recipients. […] The microbiota-recipient mice were housed in autoclaved cages, under specific pathogen-free conditions, and fed an irradiated high fat diet (45% kcal from fat, D12451, Research Diets, New Brunswick, N.J.), and followed for the next 35 days until sacrifice. Fecal pellets were collected serially from the time of transfer.
Mice were fed normal chow, then switched to high fat diet at 6 weeks of age. At 18 weeks, cecal contents were collected from 3 control and 3 STAT mice, based on their median weight, pooled, and transferred to 3-4 week old germ-free Swiss Webster mice by oral gavage. Every attempt was made to maintain viability of the microbiota by protecting the microbiota from oxygen and minimizing time between microbiota collection and transfer. Microbiota recipient mice were monitored for 5 weeks, then ileal samples were collected to assess immunity by flow cytometry and qPCR. Ileal gene expression was also measured by microarray and Nanostring Immunology Panel (FIG. 13).
Expression levels were measured by qPCR and normalized by GAPDH expression.

[1] = tested on: small intestine lamina propria lymphocytes; experiment: EL-PAT: flow cytometry of small intestine lamina propria lymphocytes; assay type: in vivo, C57BL/6 mice; conditions: 7-week old; for small intestine CD4+ IL-17A+ (IL-17A expression): males, vs control
Experimental: For the experiments, dams and their litters were divided into control and antibiotic groups. In the EL-PAT study dams in the antibiotic groups received Tylosin tartrate (Sigma Aldrich, St. Louis Mo.) dissolved in distilled deionized water (neutral pH) at a concentration of 0.33 mg/ml, and dams in the control group received non-acidified water. Mice in the PAT3 group received two additional doses of antibiotics at day 27 and 36 of life for 3 days. In some experiments, C57BL/6 mice were exposed to one, PAT1, (n=17, M=9, F=8) or three, PAT3, (n=19, M=10, F=9) doses of the macrolide Tylosin in non-acidified water or non-acidified water alone (control, n=12, M=9, F=3), early-in-life, to mirror pediatric antibiotic exposures. For the first antibiotic pulse […] of Tylosin tartrate (Sigma) was dissolved in 250 ml of non-acidified water and given to PAT1 and PAT3 lactating dams at pup day 5 of life for 5 days. For the second and third pulse, pups received the antibiotic directly at day 27 and day 36 of life respectively, for three days. Mice were sacrificed at 7 weeks of age and fecal, ileal and cecal contents were collected. Throughout the experiment mouse weight and fecal contents were collected. After euthanasia of the mice by CO2 asphyxiation, small intestines were excised and placed in cold calcium and magnesium-free HBSS supplemented with HEPES-Bicarbonate and 5% FBS (CMF). Peyer's patches were removed and the intestine was opened longitudinally along its entire length. Intestinal contents were removed by washing thoroughly with cold CMF and treated with 1 mM DTT to remove contaminating intra-epithelial lymphocytes. Subsequently, the intestinal tissue was treated twice with 1.3 mM EDTA to remove epithelial cells. To isolate lamina propria lymphocytes, intestinal tissue was cut laterally into ˜0.5 cm pieces and digested in collagenase IV digestion mix (0.5 mg/ml of collagenase IV, 200 ug/ml of DNase 1 suspended in RPMI supplemented with 10% FBS and HEPES for 1 hour. For each digestion procedure, samples were incubated at 37° C. with vigorous shaking After each treatment, cell isolates were filtered through 100 μm diameter nylon mesh (BD Bioscience). For further purification of leukocytes, intestinal cell suspensions were subjected to a 44% /67% discontinuous Percoll (GE Healthcare Life Sciences) gradient. Cells were spun at 2,200 rpm for 20 minutes and collected at the 44% /67% Percoll interface. Viable cells were carefully removed from the interface, washed, and suspended in RPMI complete media. […] All cells were acquired on a LSRII (BD Bioscience) and analyzed using FlowJo software (version 9.3.2; Tree Star Inc.). […]

SMILES | ileal expression of IL-17A (ileum) | ileal expression of IL-17F (ileum) | ileal expression of RORγt (ileum) | ileal expression of Reg3γ (ileum) | ileal expression of defensin β1 (ileum) | intestinal CD4+ IL-17A+ populations ([1]; females, three antibiotic doses, p<0.01) | CD4− IL-17A+ populations ([1]; females, three therapeutic doses, p<0.05) | small intestine CD4+ IL-17A+ (IL-17A expression) ([1]; one therapeutic dose) | small intestine CD4+ IL-17A+ (IL-17A expression) ([1]; three therapeutic doses)
CC1(C)S[C@@H]2[C@H](NC(=O)COc3ccccc3)C(=O)N2[C@H]1C(=O)[O-].[K+] [STAT, penicillin VK] | significantly down-regulated | downward trend | downward trend | significantly down-regulated | significantly down-regulated |  |  |  | 
CC[C@H]1OC(=O)C[C@@H](O)[C@H](C)[C@@H](O[C@@H]2O[C@H](C)[C@@H](O[C@H]3C[C@@](C)(O)[C@@H](O)[C@H](C)O3)[C@H](N(C)C)[C@H]2O)[C@@H](CC=O)C[C@@H](C)C(=O)/C=C/C(C)=C/[C@@H]1CO[C@@H]1O[C@H](C)[C@@H](O)[C@@H](OC)[C@H]1OC [Tylosin, Tylosin tartrate] |  |  |  |  |  | significantly decreased | decreased | significantly decreased | significantly decreased
